Source: patent US9023851B2 (Merck Patent GmbH, priority 2010, dated 2015)

How the values were obtained:
[1] = RA Phase II studies in humans; cited from earlier work
[2] = murine model of RA, cited from earlier work
ZAP-70 = target: T1, ZAP-70 (Homo sapiens, UniProt P43403); experiment: Zap70 enzymatic assay (Caliper LifeSciences technology); assay type: biochemical
T1 construct: purchased BPS Bioscience, CA, USA
T1 sequence (P43403 1-619): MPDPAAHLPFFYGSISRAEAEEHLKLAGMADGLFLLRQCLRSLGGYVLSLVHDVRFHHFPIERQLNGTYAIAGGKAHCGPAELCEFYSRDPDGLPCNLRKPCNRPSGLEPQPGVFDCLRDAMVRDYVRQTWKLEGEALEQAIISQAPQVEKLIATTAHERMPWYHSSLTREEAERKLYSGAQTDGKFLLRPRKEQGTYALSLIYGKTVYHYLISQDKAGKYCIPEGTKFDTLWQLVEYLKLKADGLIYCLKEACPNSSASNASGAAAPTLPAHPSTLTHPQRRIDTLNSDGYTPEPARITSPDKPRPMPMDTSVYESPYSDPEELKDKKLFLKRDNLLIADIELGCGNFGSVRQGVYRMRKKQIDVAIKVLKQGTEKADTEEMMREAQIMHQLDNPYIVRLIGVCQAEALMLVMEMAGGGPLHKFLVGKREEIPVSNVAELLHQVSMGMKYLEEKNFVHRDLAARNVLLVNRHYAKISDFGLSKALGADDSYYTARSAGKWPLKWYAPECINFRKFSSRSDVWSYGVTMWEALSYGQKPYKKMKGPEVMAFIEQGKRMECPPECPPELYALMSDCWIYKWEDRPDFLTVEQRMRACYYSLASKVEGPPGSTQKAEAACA
Outline: (§1)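 Off-chip mobility-shift assay quantifying conversion of a fluorescent peptide substrate to phosphorylated product. Reactions in 100 mM HEPES pH 7.5, 1 mM DTT, 1 mM MgCl2, 0.015% Brij-35, 90 min at 25 C, stopped with EDTA. IC50 from sigmoidal fit of percent conversion versus inhibitor concentration.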

Src = target: T2, Src (Homo sapiens, UniProt P12931); experiment: cSrc enzymatic assay (Caliper LifeSciences technology); assay type: biochemical
T2 construct: purchased Carna Bioscience, Kobe, Japan
Protocol: (§2) Enzymatic Assays Using the Caliper LifeSciences Technology
(§3) The assays described here are performed on the Caliper Life Sciences LC3000 system This technology provides data on enzyme activity via measurement of the relative amounts of phosphorylated or unphosphorylated fluorescently labelled substrate peptide at the end of an enzymatic reaction. These different states of peptide are resolved by applying a potential difference across the sample. The presence of the charged phosphate group on the product (as opposed to the substrate) causes a different peptide mobility between the two peptides. This is visualized by excitation of the fluorescent label on the substrate and product peptides and represented as peaks within the analysis software.
(§4) In order to measure inhibitor activity of kinase inhibitors on this technology, a TTP Mosquito liquid handling instrument is used to place 0.25 ul of the appropriate concentration of inhibitor in 100% DMSO (for a dose response curve calculation) into each well of a 384-well plate. To this reaction components are added to a final volume of 25 ul. The table below indicates the sequences and concentrations for the assays described in this report. Standard components are 1 mM DTT (Sigma, D0632), 1 mM MgCl2 (Sigma, M1028), 100 mM HEPES pH 7.5 (Calbiochem, 391338), 0.015% Brij-35 (Sigma, B4184).
(§5) The reaction is incubated for 90 min at 25 C, and then stopped by the addition of 70 ul of Stop buffer (100 mM HEPES pH 7.5, 0.015% Brij-35, 10 mM EDTA (Sigma, E7889)).
(§6) The plate is read on a Caliper LC 3000 in an Off-Chip mobility shift assay format, on a 12-sipper chip. Unphosphorylated substrate and phosphorylated product peptide resolve as separate peaks allowing direct measurement of percentage of conversion of substrate to product. The percent conversion can be plotted against concentration of inhibitor to produce a sigmoidal dose response curve, from which an IC50 can be calculated using GeneData Condoseo or a similar product. Cellular activity assays

BTK = target: T3, BTK (Homo sapiens, UniProt Q06187); experiment: BTK enzymatic assay (Caliper LifeSciences technology); assay type: biochemical
T3 construct: purchased Carna Bioscience, Kobe, Japan
Protocol: as §2, §3, §4, §5, §6

Syk = target: T4, Syk (Homo sapiens, UniProt P43405); experiment: Syk enzyme assay (flash plate / Caliper mobility shift); assay type: biochemical
T4 construct: purchased BPS Bioscience, CA, USA
Outline: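 Flashplate format used 2.5 nM SYK, 400 nM biotinylated peptide and 10 µM ATP with 33P tracer, pH 7.5, 1 h at 30 °C, read by radioactivity. Caliper format ran 90 min at 25 °C in HEPES pH 7.5, reading percent peptide conversion by mobility shift. IC50s came from dose-response curves.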

KDR = target: T5, KDR (Homo sapiens, UniProt P35968); experiment: KDR enzymatic assay (Caliper LifeSciences technology); assay type: biochemical
T5 construct: purchased BPS Bioscience, CA, USA
Outline: as §1

GCN2 = GCN2 (Homo sapiens, UniProt Q9P2K8); experiment: GCN2 kinase TR-FRET (Lanthascreen) assay; assay type: biochemical
From the text: GCN2: Assay Principle & Conditions
This assay can quantificate the activity of the serin kinase GCN2 (general control non-derepressible-2).
This kinase is involved in the stress metabolism of cells. It is activated upon starvation (amino acid depletion). Its natural substrate is eIF2a (eukaryotic initiation factor 2 alpha subunit), a translation factor, which gets activated (phosphorylated) by GCN2 in case of an amino acid bottleneck in the cells. This in turn leads to a halt of the protein synthesis. Inhibition of GCN2 results in stopping this mechanism: The cell can not stop protein production upon “starvation” stress.
The assay is run in two steps: the enzymatic reaction and the detection step. In the first step GCN2 is incubated with 10 μM ATP and 80 nM of the GFP-labelled substrate eIF2alpha at room temperature.
The enzymatic reaction is stopped by addition of EDTA. The amount of phosphorylated eIF2alpha is determined by TR-FRET (Lanthascreen): A complex is formed consisting of antibody and GFP labelled phospho-eIF2a, which allows a FRET upon exitation at 340 nm.
The GCN2-activity is directly proportional to the ratio of fluorescence units at the emission wavelengthh 520 nm (phosphopeptide-sensitive wavelength=emission of GFP) to the units at 495 nm (reference wavelength=emission of Terbium-chelate).
Assay Procedure • 4 uL enzyme solution (in assay buffer) • 1.5 uL compound (in cmpd dilution buffer/6.3% DMSO) • Incubation 20 min at RT • 4 uL substrate/ATP mix (in assay buffer) • Incubation 90 min at RT • 10 uL stop/detection mix (in antibody dilution buffer) • Incubation 60 min at RT • Readout Lanthascreen 340/495/5204

Ramos cells = experiment: BCR crosslinking-induced BLNK phosphorylation (BLNK cell assay); assay type: cell-based; settings: Homo sapiens
Protocol: 1. BCR Crosslinking-Induced BLNK Phosphorylation
Ramos cells incubated overnight in IMDM medium containing 5% FCS were resuspended in IMDM medium without serum (3.3×10^6 cells/ml). 90 μl of cell suspension (300′000 cells) were incubated with 10 μl of SYK inhibitors (in 3% DMSO) for 20 minutes at 37° C., in 96 well plates. After preincubation with inhibitors, cells were activated with 10 μg/ml of goat antihuman anti-IgM for 10 minutes at 37° C. After stimulation, cells were fixed by addition of 80 μl of 4% paraformaldehyde followed by a 10 minutes incubation at RT and […] in 0.1% Triton X-100 in PBS. BLNK phosphorylation was detected by flow cytometry after staining of the cells with anti-BLNK-pY84-PE antibodies from BD pharmingen, for 45 minutes at RT. […]

3LL lung carcinoma = settings: s.c. 3LL lung carcinoma in mice; cited from earlier work

T5 sequence (P35968 20-1356): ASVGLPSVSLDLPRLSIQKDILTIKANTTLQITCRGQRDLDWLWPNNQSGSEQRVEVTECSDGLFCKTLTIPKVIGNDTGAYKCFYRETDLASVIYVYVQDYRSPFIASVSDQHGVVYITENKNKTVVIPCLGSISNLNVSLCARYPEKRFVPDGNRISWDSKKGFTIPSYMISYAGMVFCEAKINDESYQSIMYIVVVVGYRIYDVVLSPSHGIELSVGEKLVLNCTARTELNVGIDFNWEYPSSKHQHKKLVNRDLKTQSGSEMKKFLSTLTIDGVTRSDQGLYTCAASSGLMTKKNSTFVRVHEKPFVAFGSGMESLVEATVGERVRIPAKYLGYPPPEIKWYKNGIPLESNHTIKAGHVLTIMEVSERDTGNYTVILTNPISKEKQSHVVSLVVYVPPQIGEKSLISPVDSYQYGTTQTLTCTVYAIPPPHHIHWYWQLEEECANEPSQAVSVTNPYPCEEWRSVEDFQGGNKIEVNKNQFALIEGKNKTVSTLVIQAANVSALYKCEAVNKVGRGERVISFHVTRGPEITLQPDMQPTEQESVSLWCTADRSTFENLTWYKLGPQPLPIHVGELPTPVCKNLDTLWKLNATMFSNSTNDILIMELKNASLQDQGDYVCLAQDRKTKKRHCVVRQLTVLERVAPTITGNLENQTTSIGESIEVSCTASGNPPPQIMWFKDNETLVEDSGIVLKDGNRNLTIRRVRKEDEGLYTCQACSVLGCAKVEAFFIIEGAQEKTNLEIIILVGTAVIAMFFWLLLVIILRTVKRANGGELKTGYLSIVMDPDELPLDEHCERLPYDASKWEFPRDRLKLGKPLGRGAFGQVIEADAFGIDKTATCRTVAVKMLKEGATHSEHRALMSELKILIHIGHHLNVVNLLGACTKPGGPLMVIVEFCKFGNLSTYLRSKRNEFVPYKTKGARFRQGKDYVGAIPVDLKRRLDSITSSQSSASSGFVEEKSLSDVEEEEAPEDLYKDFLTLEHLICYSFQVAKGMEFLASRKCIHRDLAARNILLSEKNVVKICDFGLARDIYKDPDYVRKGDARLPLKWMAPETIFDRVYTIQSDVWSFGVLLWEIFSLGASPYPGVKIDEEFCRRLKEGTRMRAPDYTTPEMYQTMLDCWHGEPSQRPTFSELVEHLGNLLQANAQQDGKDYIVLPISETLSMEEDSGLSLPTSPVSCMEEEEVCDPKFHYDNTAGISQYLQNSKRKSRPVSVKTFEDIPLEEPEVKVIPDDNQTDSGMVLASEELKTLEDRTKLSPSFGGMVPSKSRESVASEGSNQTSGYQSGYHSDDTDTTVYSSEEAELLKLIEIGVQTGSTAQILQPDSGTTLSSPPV
GCN2, sequence (Q9P2K8 whole entry, species assumed): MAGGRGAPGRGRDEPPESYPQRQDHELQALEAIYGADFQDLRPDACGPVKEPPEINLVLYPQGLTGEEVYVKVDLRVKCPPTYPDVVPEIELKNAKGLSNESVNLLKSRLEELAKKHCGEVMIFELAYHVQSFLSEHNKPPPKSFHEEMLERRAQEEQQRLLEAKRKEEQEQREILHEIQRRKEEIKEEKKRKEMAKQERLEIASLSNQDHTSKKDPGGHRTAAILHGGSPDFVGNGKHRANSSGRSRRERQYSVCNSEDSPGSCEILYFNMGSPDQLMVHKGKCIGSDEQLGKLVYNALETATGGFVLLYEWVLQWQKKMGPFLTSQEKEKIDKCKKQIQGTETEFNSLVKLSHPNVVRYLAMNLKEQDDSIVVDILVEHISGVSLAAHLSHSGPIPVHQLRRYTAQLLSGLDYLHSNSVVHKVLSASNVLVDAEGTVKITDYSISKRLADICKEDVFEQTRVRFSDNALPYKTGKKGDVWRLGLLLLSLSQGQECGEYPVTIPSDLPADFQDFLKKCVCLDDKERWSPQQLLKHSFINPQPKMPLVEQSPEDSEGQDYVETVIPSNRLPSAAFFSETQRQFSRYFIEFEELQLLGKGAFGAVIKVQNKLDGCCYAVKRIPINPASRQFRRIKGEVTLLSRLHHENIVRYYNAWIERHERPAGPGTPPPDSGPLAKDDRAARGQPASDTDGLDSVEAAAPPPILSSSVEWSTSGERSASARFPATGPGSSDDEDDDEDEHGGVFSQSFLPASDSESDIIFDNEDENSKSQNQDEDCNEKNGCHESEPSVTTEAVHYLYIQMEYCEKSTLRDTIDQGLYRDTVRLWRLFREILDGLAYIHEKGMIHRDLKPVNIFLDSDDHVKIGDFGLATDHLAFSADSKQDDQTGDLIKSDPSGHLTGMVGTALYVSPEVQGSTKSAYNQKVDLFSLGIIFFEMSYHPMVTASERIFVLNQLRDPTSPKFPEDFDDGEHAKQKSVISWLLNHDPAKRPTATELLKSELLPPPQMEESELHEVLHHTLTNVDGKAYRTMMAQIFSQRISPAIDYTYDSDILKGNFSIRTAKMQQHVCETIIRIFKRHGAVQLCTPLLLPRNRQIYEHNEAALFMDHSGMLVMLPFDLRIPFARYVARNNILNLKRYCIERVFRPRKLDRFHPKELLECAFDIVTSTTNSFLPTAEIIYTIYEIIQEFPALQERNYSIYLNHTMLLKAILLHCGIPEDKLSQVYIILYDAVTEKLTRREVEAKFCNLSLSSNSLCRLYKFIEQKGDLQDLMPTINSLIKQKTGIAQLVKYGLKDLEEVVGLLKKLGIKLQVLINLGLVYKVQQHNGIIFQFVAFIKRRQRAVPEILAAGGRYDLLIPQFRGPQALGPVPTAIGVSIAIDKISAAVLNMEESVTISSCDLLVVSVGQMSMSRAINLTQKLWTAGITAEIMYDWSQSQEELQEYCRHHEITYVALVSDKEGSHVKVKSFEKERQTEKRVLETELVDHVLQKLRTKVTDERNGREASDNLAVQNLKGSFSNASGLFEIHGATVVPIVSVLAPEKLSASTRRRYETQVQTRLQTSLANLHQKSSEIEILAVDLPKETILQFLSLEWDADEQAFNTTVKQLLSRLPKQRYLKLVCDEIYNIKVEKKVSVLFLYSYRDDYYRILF
T2 sequence (P12931 whole entry): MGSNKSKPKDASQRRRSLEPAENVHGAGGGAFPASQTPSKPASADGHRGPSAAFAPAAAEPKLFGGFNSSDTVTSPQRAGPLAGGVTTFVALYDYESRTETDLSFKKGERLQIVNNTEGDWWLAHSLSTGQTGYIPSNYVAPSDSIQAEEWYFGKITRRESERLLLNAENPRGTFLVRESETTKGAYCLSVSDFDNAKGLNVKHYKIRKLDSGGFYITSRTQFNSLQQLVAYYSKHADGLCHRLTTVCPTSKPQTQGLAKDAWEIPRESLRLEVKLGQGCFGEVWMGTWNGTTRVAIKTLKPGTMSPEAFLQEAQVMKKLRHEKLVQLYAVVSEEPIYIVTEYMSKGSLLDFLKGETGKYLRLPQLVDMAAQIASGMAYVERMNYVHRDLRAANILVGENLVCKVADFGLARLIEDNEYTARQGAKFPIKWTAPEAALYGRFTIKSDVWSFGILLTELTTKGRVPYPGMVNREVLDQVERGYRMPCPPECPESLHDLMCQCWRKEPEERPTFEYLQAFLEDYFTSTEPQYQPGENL
T3 sequence (Q06187 whole entry): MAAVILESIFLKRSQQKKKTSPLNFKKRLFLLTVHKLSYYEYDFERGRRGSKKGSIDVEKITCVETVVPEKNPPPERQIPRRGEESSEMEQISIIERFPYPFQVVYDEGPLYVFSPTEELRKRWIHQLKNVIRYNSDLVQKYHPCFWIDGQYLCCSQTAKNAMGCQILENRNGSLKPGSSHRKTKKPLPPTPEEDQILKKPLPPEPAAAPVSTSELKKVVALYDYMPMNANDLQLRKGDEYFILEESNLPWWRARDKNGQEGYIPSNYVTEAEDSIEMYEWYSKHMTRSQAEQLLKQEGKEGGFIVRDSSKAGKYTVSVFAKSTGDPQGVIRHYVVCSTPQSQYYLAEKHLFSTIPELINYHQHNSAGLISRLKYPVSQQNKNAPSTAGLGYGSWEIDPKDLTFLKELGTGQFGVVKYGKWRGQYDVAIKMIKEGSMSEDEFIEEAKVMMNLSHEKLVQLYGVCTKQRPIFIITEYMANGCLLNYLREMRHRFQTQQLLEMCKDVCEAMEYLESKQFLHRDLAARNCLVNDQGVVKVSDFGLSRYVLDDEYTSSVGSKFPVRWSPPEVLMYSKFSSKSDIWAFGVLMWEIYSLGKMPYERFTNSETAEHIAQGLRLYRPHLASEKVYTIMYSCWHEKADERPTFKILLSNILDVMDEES

| IC50 (ZAP-70) | IC50 (Src) | IC50 (Syk) | IC50 (KDR) | IC50 (GCN2) | Structure (SMILES) | further results |
| --- | --- | --- | --- | --- | --- | --- |
|  |  |  |  |  | COc1cc(Nc2ncc(F)c(Nc3ccc4c(n3)NC(=O)C(C)(C)O4)n2)cc(OC)c1OC [Example R406] | efficacy (ACR scores) [1]: efficacy (ACR scores improvement); tolerability [1]: good tolerability; clinical scores ([2]; orally available Syk inhibitor): significant improvement of clinical scores; serum cytokine concentrations and bone erosion [2]: significantly reduced serum cytokine concentrations, as well as bone erosion |
| 3 to 50 µM | 3 to 50 µM | 3000 to 50000 nM | 3000 to 50000 nM |  | c1ccc(Nc2nc3c(-c4nccs4)nccn3n2)cc1 [Example C14, Phenyl-(8-thiazol-2-yl-[1,2,4]triazolo[1,5-a]pyrazin-2-yl)-amine] | IC50 (BTK): 3 to 50 µM |
|  |  |  |  | < 10 µM | c1ccc(Cn2ncc3ccc(Nc4nc5c(-c6ccccc6)nccn5n4)cc32)cc1 [Example E8] |  |
| 0.3 to 3 µM | 0.3 to 3 µM | < 300 nM | < 300 nM |  | COc1cc(Nc2nc3c(-c4cccc(NS(C)(=O)=O)c4)nccn3n2)cc(OC)c1 [Example C272, N-{3-[2-(3,5-Dimethoxy-phenylamino)-[1,2,4]triazolo[1,5-a]pyrazin-8-yl]-phenyl}-methanesulfonamide] | IC50 (Ramos cells): 3 to 50 µM |
|  |  |  |  | < 10 µM | COc1cc(OC)cc(-c2nccn3nc(Nc4cc(C)cc(C)c4)nc23)c1 [Example E5] |  |
| 3 to 50 µM | 0.3 to 3 µM | < 300 nM | 300 to 3000 nM |  | COc1cc(Nc2nc3c(-c4cccnc4)nccn3n2)cc(OC)c1 [Example C19, (3,5-Dimethoxy-phenyl)-(8-pyridin-3-yl-[1,2,4]triazolo[1,5-a]pyrazin-2-yl)-amine] | IC50 (Ramos cells): 3 to 50 µM; IC50 (BTK): 3 to 50 µM |
|  |  |  |  |  | N=C(NO)NCC[C@H](N)C(=O)O [N-hydroxy-nor-L-Arg] | tumor growth (3LL lung carcinoma): blocks growth of s.c. 3LL lung carcinoma in mice |
|  |  |  |  | < 10 µM | c1ccc(Cn2ncc3ccc(Nc4nc5c(-c6nccs6)nccn5n4)cc32)cc1 [Example E9] |  |
|  |  |  |  | < 10 µM | COc1ccc(Nc2nc3c(-c4cccnc4)nccn3n2)cc1OC [Example E10] |  |
|  |  | < 300 nM | < 300 nM |  | COc1cc(Nc2nc3c(-c4ccccc4)nccn3n2)cc(OC)c1 [Example C8, (3,5-Dimethoxy-phenyl)-(8-phenyl-[1,2,4]triazolo[1,5-a]pyrazin-2-yl)-amine] | IC50 (BTK): 3 to 50 µM |
| 0.3 to 3 µM | 0.3 to 3 µM | < 300 nM | < 300 nM |  | COc1cc(Nc2nc3c(-c4cccc(O)c4)nccn3n2)cc(OC)c1 [Example C268, 3-[2-(3,5-Dimethoxy-phenylamino)-[1,2,4]triazolo[1,5-a]pyrazin-8-yl]-phenol] | IC50 (Ramos cells): 3 to 50 µM |
| 3 to 50 µM |  | 300 to 3000 nM |  |  | c1ccc(Cn2ncc3ccc(Nc4nc5c(-c6nccs6)nccn5n4)cc32)cc1 [Example C24, (1-Benzyl-1H-indazol-6-yl)-(8-thiazol-2-yl-[1,2,4]triazolo[1,5-a]pyrazin-2-yl)-amine] | IC50 (BTK): 3 to 50 µM |
| 3 to 50 µM | 0.3 to 3 µM | < 300 nM | < 300 nM |  | c1ccc2ncc(-c3nccn4nc(Nc5ccc(N6CCOCC6)cc5)nc34)cc2c1 [Example C261] | IC50 (Ramos cells): 3 to 50 µM |
|  |  |  |  | < 10 µM | Cn1ccnc1Sc1ccc(Nc2nc3c(-c4ccccc4)nccn3n2)cc1Cl [Example E7] |  |
|  |  |  |  | < 10 µM | Cc1cccc(Nc2nc3c(-c4ccc(N5CCOCC5)cc4)nccn3n2)c1 [Example E4] |  |
| 3 to 50 µM | 0.3 to 3 µM | < 300 nM | 300 to 3000 nM |  | CN1CCN(c2ccc(Nc3nc4c(-c5cnn(C)c5)nccn4n3)cc2)CC1 [Example D18, [4-(4-Methyl-piperazin-1-yl)-phenyl]-[8-(1-methyl-1H-pyrazol-4-yl)-[1,2,4]triazolo[1,5-a]pyrazin-2-yl]-amine] | IC50 (Ramos cells): 3 to 50 µM |
|  |  |  |  | < 10 µM | Cc1cc(C)cc(Nc2nc3c(-c4cccnc4)nccn3n2)c1 [Example E6] |  |
|  | 3 to 50 µM | 3000 to 50000 nM | 3000 to 50000 nM |  | O=C1Nc2cc(Nc3nc4c(-c5nccs5)nccn4n3)ccc2OC1(F)F [Example C6, 2,2-Difluoro-6-(8-thiazol-2-yl-[1,2,4]triazolo[1,5-a]pyrazin-2-ylamino)-4H-benzo[1,4]oxazin-3-one] | IC50 (BTK): 3 to 50 µM |
|  |  |  |  | < 10 µM | FC(F)(F)c1cccc(Nc2nc3c(-c4ccc(N5CCOCC5)cc4)nccn3n2)c1 [Example E3] |  |
|  |  |  |  | < 10 µM | Cc1cc(C)cc(Nc2nc3c(-c4ccc(N5CCOCC5)cc4)nccn3n2)c1 [Example E2] |  |
| 3 to 50 µM | < 0.3 µM | < 300 nM | 300 to 3000 nM |  | CN1CCN(c2ccc(Nc3nc4c(-c5cnc6ccccc6c5)nccn4n3)cc2)CC1 [Example D23, [4-(4-Methyl-piperazin-1-yl)-phenyl]-(8-quinolin-3-yl-[1,2,4]triazolo[1,5-a]pyrazin-2-yl)-amine] | IC50 (Ramos cells): 3 to 50 µM |
